{"source": "patent US20210212937A1", "about": "“GLUCONO DELTA-LACTONE FOR TREATMENT OF VAGINAL FUNGAL INFECTIONS” (Gedea Biotech AB, priority 2016, published 2021)", "key": {"Candida sp.": {"tested_on": "Candida sp.", "assay": "Viability on medium with calcofluor white versus osmotic stabilizer (cell wall damage)", "type": "cell-based", "conditions": "compared to medium with 0.5M sucrose and to untreated cells"}, "Candida glabrata": {"tested_on": "Candida glabrata", "assay": "Biofilm formation in a model of in vivo conditions using GDA pellet", "type": "cell-based", "conditions": "C. glabrata; GDA released from pellet (2.5 g) in pH 3.71 buffer, samples 1-24 h, diluted 50 times", "protocol": "(§1) Yeast strains were grown at 37° C. in complete medium YPD (0.5% (weight/volume) yeast extract, 1% (weight/volume) peptone, 2% (weight/volume) glucose) or minimal medium consisting of YNB (yeast nitrogen base without amino acids and ammonium sulphate, FORMEDIUM™, CYN0505) supplemented with 0.5% (weight/volume) ammonium sulphate, 0.2% (weight/volume) glucose and 100 mM L-proline. If needed 2% (weight/volume) agar was used to solidify media. The liquid minimal medium (YNB (yeast nitrogen base without amino acids and ammonium sulphate, FORMEDIUM™, CYN0505) supplemented with 0.5% ammonium sulphate, 0.2% (weight/volume) glucose and 100 mM L-proline) was used for biofilm assay (biofilm medium).\n(§2) Biofilm was measured in liquid culture as described [K. Scherz et al., G3 (Bethesda), 2014, 4, 1671-1680. I. Serrano-Fujarte et al. Biomed Res Int. 2015; 2015:783639] with some modifications. Prior the biofilm assay, yeast cultures were grown in liquid YPD medium for 24 hours until stationary phase cells were then pelleted by centrifugation (1699×g), washed with sterile water and the cells were further inoculated into test biofilm medium (YNB (yeast nitrogen base without amino acids and ammonium sulphate) supplemented with 0.5% ammonium sulphate, 0.2% glucose and 100 mM L-proline pH7.0) at final concentration of 0.2 OD600/ml and incubated in 96-well flat-bottom polystyrene microtiter plates (Sigma Aldrich, Corning® Costar® culture plates, CLS3596-50EA) for 72 hours at 37° C. thermostat. At defined time points crystal violet (HT901-8FOZ; Sigma Aldrich) was added to the media at the final concentration 0.05% In addition, total biomass was measured. […] Total biomass and crystal violet biofilm staining measurements were performed at OD560 with FLUOstar OPTIMA plate reader, BMG LABTECH. […]\n(§3) Samples (4 mL) were taken at fixed time points (1, 2, 3, 4, 5, 6 and 24 h) and new buffer solution (4 mL) was added. The samples were diluted 50 times with biofilm medium (vide supra) and the amount of biofilm formation was measured after 24 h as described above. […]"}, "Candida albicans [1]": {"tested_on": "Candida albicans", "assay": "Biofilm formation in a model of in vivo conditions using GDA pellet", "type": "cell-based", "conditions": "C. albicans", "protocol": "as §1, §2, §3"}, "Candida albicans [2]": {"tested_on": "Candida albicans", "assay": "Biofilm formation of Candida albicans at different pH (crystal violet)", "type": "cell-based", "protocol": "The biofilm was measured after 24 h and the staining was performed with crystal violet.\nas §1\nBiofilm was measured in liquid culture as described [K. Scherz et al., G3 (Bethesda), 2014, 4, 1671-1680. I. Serrano-Fujarte et al. Biomed Res Int. 2015; 2015:783639] with some modifications. […] At defined time points crystal violet (HT901-8FOZ; Sigma Aldrich) was added to the media at the final concentration 0.05% In addition, total biomass was measured. […] Total biomass and crystal violet biofilm staining measurements were performed at OD560 with FLUOstar OPTIMA plate reader, BMG LABTECH. […]"}, "C. albicans [3]": {"tested_on": "C. albicans", "assay": "Cell survival of mature biofilm, serial dilution plating on YPD", "type": "cell-based, Candida albicans", "conditions": "0.5 g/ml, 5 h, 37° C.", "protocol": "(§4) The plated cells were incubated for 24 h at 37° C. and visually analyzed. The cells from the mature biofilm treated with water were used as a control. […] At the concentrations of 0.2 and 0.5 g/ml after 5 h of incubation the cell viability was decreased by about 100 times for both C. albicans and C. glabrata."}, "C. albicans [4]": {"tested_on": "C. albicans", "assay": "Viability of mature biofilm, XTT staining", "type": "cell-based, Candida albicans", "protocol": "(§5) XXT is a colorimetric assay for quantification of cellular viability, and cytotoxicity. The assay is based on the cleavage of the tetrazolium salt XTT, a conversion that only occurs in viable cells. […] Then the cells were washed 2 times with PBS, after which the XTT reaction mixture was added. After 30 min the optical density measured at 485 nm."}, "C. glabrata [5]": {"tested_on": "C. glabrata", "assay": "Viability of mature biofilm, XTT staining", "type": "cell-based, Candida glabrata", "conditions": "24 h of incubation", "protocol": "as §5"}, "C. glabrata [6]": {"tested_on": "C. glabrata", "assay": "Cell survival of mature biofilm, serial dilution plating on YPD", "type": "cell-based, Candida glabrata", "protocol": "as §4"}, "C. albicans [7]": {"tested_on": "C. albicans", "assay": "Microfluidics study of biofilm development (cell morphology)", "type": "cell-based, Candida albicans", "conditions": "5 h, 1 h hydrolysate of GDA pellet diluted 50 times", "protocol": "To monitor the C. albicans cell morphology we studied the biofilm development also using microscopy and microfluidics. After the yeast cells were inoculated, hyphae started to form within first hour of incubation in the biofilm medium (YNB supplemented with 100 mM proline and 0.2% glucose, pH7.0). […] A sample was taken after 1 h and diluted 50 times with biofilm medium and added to C. albicans."}, "Candida": {"tested_on": "Candida", "assay": "Biofilm assay of hydroxylated carboxylic acids", "type": "cell-based", "source_text": "Given the importance of formation of biofilm in vulvovaginal Candida infections, a biofilm assay was deemed appropriate to evaluate the effect of hydroxylated carboxylic acid in targeting vulvovaginal Candida infections. […] As biofilm formation is dependent on both pH and the occurrence of alternative carbohydrate sources, it was not surprising to learn that lactic acid provides some effect on the formation of biofilm. Further, also some other hydroxylated C2-C5 carboxylic acids provided similar effects. Their effect is deemed to be related to their acidifying effect, as the stronger acid provided somewhat stronger effects.\nWhereas the effect of other hydroxylated carboxylic acids seemingly only is due to their acidity (lowering the pH hampers the formation of biofilm), the effect of polyhydroxylated C6 carboxylic acids, e.g. gluconic acid, on formation of biofilm is pronounced already at pH<7. Thus, it seems that the effect of polyhydroxylated C6 carboxylic acid, e.g. gluconic acid, on formation of biofilm not merely is related to its acidity, but the compound itself, or more precisely the related δ-lactone thereof, also provides an effect."}}}
{"smiles": "O=C1O[C@H](CO)[C@@H](O)[C@H](O)[C@H]1O", "note": "[GDA, glucono δ-lactone]", "values": [{"measurement": "Viability on medium with calcofluor white", "setting": "Candida sp.", "value": "lower viability"}, {"measurement": "Amount of biofilm formation", "setting": "Candida glabrata", "value": "less pronounced"}, {"measurement": "Amount of biofilm formation", "setting": "Candida albicans [1]; GDA released from pellet (2.5 g) in pH 3.71 buffer, samples 1-24 h, diluted 50 times", "value": "significantly reduces"}, {"measurement": "Duration of preventive effect of pellet", "setting": "Candida albicans [1]; pellet 2.5 g in pH 3.71 buffer, 37° C.", "value": "≥ 24", "unit": "h"}, {"measurement": "pH up to which strong effect on biofilm formation is shown", "setting": "Candida albicans [2]; C. albicans, 24 h", "value": "at least 6"}, {"measurement": "Effect on biofilm formation of C. albicans", "setting": "Candida albicans [2]; minimal media pH 2.6-6.6, 24 h", "value": "strong effects"}, {"measurement": "Decrease of cell viability", "setting": "C. albicans [3]", "value": "about 100 times"}, {"measurement": "Viability of mature biofilm (XTT, OD 485 nm)", "setting": "C. albicans [4]; 24 h of incubation", "value": "less pronounced"}, {"measurement": "Viability of mature biofilm (XTT, OD 485 nm)", "setting": "C. albicans [4]; 48 h", "value": "clearly seen"}, {"measurement": "Viability of mature biofilm (XTT, OD 485 nm)", "setting": "C. glabrata [5]", "value": "strong decrease in viability"}, {"measurement": "Decrease of cell viability", "setting": "C. glabrata [6]; C. glabrata mature biofilm, 0.5 g/ml, 5 h, 37° C.", "value": "about 100 times"}, {"measurement": "Sensitivity of mature biofilm compared with C. albicans", "setting": "C. glabrata [6]; C. glabrata, plating after incubation with GDA", "value": "more sensitive"}, {"measurement": "Cell morphology", "setting": "C. albicans [7]", "value": "most treated cells were planctonic"}]}
{"smiles": "O=C(O)[C@H](O)[C@@H](O)[C@H](O)[C@H](O)CO", "note": "[gluconic acid]", "values": [{"measurement": "pH at which effect on formation of biofilm is already pronounced", "setting": "Candida", "value": "< 7"}, {"measurement": "Decrease of formation of biofilm", "setting": "Candida; compared to glyceric acid, xylonic acid and citric acid", "value": "superior effects"}]}
{"smiles": "CC(O)C(=O)O", "note": "(stereo not shown) [lactic acid]", "values": [{"measurement": "Activity in biofilm assay", "setting": "Candida; targeting vulvovaginal Candida infections", "value": "moderately active"}]}
